The numbers were not newly measured in US9107877B2, “Method of treating onychomycosis” (Polichem SA, priority 2013, dated 2015), which cites them from elsewhere.

The subject of data set [1] is onychomycosis. Conditions: 48 weeks of daily topical treatment, 12-week follow up.
For data set [2], the system named is onychomycosis. Conditions: oral, 250 mg tablet a day for 12 weeks.

As to `Cc1cc(C2CCCCC2)n(O)c(=O)c1` [ciclopirox], in the data set with onychomycosis [1], the Complete cure entry is reported as “about 13%” and the Responders is roughly 30%.

For `CN(C/C=C/C#CC(C)(C)C)Cc1cccc2ccccc12` [terbinafine], the “Complete cure, % of patients” value in the data set on onychomycosis [2] is on record as 38%.
